# Entries after “also recorded” stand apart in the source; their conditions may differ.
# Tests used:
# calcineurin = assay: Calcineurin enzymatic activity in vitro; type: biochemical; conditions: substrates para-nitrophenylphosphate or immunoprecipitated NFATc2
# [1] = system: graft versus host disease; conditions: open label study; cited from earlier work
# [2] = system: human mixed lymphocyte reaction; assay: Human mixed lymphocyte reaction (MLR), [3H]-thymidine incorporation; type: cell-based; conditions: FIG. 1B, n=6
# Description: The human MLR was established by coculturing normal human PBMN responder lymphocytes (0.5×10^6) with an equal number of miomycin C-treated stimulator cells in RPMI1640 complete medium. The cells were incubated with varying doses of clofazimine at 37° C. in a humidified atmosphere of 5% CO2 for 4 days. Then 1 μCi of [^3H]-thymidine was added into culture and incubation was continued for 6 h. The cells were harvested and [^3H]-thymidine incorporated into cells was measured in a liquid scintillation counter.
# [3] = system: calcineurin-NFATc2 interaction; assay: GST-NFATc2 pull-down of calcineurin; type: binding
# rat Kv1.2 = biological target: T1, rat Kv1.2 (Rattus norvegicus, UniProt P63142); assay: Patch-clamp of heterologous rat Kv1.2 expressed in B82 cells; type: cell-based
# T1 construct: expressed in transfected cells; host or cells: B82 cells
# T1 sequence (P63142 whole entry): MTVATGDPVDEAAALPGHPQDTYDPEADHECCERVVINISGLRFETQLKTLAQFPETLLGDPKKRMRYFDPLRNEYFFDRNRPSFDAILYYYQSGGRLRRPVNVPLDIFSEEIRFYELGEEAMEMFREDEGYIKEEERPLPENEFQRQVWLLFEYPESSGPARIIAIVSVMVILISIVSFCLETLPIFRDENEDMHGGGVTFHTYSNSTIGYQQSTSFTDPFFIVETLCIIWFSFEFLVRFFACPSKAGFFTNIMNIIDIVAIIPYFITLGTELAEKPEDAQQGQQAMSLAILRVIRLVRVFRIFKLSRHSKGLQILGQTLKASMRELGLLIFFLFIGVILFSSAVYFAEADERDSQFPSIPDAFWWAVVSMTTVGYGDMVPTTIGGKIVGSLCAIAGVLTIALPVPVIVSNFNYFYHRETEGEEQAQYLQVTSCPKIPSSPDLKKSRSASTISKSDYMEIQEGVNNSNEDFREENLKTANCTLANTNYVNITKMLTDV
# Description: Patch pipettes, pulled from glass capillaries (inner diameter 1.5 mm, Kimble products) with a horizontal puller (Sutter instruments, Modell P-97), were fire-polished, and had resistances between 2 and 4 MOhm. Patch-clamp experiments were performed in the tight-seal whole-cell configuration at room temperature (22-24° C.). High-resolution current recordings were acquired by a computer-based patch-clamp amplifier system (EPC-9, HEKA). Immediately following establishment of the whole-cell configuration, every two seconds voltage ramps of 50 ms duration spanning the voltage range of −100 to +100 mV for Jurkat T-cells and −150 to +150 mV for HEK293 were delivered from a holding potential (Vh) of −70 mV for Jurkats and 0 mV for HEK293 cells over a period of 300-600 s. […] Capacitive currents and series resistance were determined and corrected before each voltage ramp using the automatic capacitance compensation of the EPC-9. […] Kv1.3 currents in Jurkat T-cells were measured at +80 mV. Heterologously expressed Kv1.1, Kv1.2, Kv1.3, Kv1.5 and Kv3.1 were assessed at +80 mV except in Figure S7, where currents were additionally measured at the more physiological voltage of 0 mV. CRAC currents in HEK293 cells were assessed at −80 mV. […]
# [4] = system: endogenous NFATc2 dephosphorylation; assay: Dephosphorylation of endogenous NFATc2 in Jurkat T-cells (Western blot); type: cell-based, human; conditions: ionomycin treatment
# Description: Jurkat T-cells were pretreated with indicated compounds for 1 h before 3 μM (final concentration) ionomycin was added. Cells were harvested after 30 min and lysed in a lysis buffer [40 mM Tris (pH 7.8), 1% NP-40, 10 mM EDTA, 60 mM […] and common protease inhibitors] by sonication. NFATc2 was resolved by 8% SDS-PAGE followed by Western blot analysis using anti-NFAT antibodies (Santa-cruz Sc-7296, 1:100 dilution).
smiles,measurement,setting,value
"CC(C)/N=c1\cc2n(-c3ccc(Cl)cc3)c3ccccc3nc-2cc1Nc1ccc(Cl)cc1 [clofazimine, Clofazimine]",effect on enzymatic activity of calcineurin in vitro,calcineurin,no effect on the enzymatic activity; also recorded: does not inhibit the protein phosphatase activity
same,patients able to decrease the amount of other medication,[1],~25%
same,IC50,[2],900 ± 170 nM
same,effect on binding of GST-NFATc2 to calcineurin,[3],Nor did it affect the binding; also recorded: does not interfere with calcineurin-NFATc2 interaction
same,"block of current, rat Kv1.2",rat Kv1.2; 10 μM,less than 50%
same,IC50,rat Kv1.2; inferred from block at 10 μM,> 10 µM
same,effect on dephosphorylation of endogenous NFATc2,[4],inhibited ionomycin-induced dephosphorylation of NFATc2 in a dose-dependent manner
same,effect on dephosphorylation of endogenous NFATc2,[4]; listed as Clofazimine,inhibits dephosphorylation
